Results on two compounds are retold here after publication PMC4634243 (Influenza and Other Respiratory Viruses, 2012).

In data set [1] the test system is RNP combinations of PB2, PB1, PA, and NP from influenza virus strain 178. The data set is classed as cell-based, influenza virus strain 178 (H5N1), 293T cells.
The test system of data set [2] is influenza virus type A, A/Chicken/GuangDong/178/2004 (H5N1, 178).
In data set [3] the test system is H5N1‐HIV pseudoviruses (HA of A/Qinghai/59/2005(H5N1), NA of A/Thailand/Kan353/2004). The data set is classed as cell-based, H5N1 pseudovirus in MDCK cells.
For data set [4], the system named is H5N1 influenza virus strain 178. Briefly: organism not typed. It counts as cell-based, H5N1 influenza virus strain 178 in MDCK cells.
A further data set addresses purified N1‐type NA (Influenza A virus, UniProt P03468). The data set is classed as biochemical.
Data set [5] deals with H5N1 influenza virus strain 178. It counts as cell-based, H5N1 influenza virus strain 178 in MDCK cells. The following applies: 12–72 h.
Data set [6] has as its system nuclear‐to‐cytoplasmic export of the RNP complex (NP). The data set is classed as cell-based, 178 H5N1 HPAIV in MDCK cells.

Chain of purified N1‐type NA (P03468 whole entry): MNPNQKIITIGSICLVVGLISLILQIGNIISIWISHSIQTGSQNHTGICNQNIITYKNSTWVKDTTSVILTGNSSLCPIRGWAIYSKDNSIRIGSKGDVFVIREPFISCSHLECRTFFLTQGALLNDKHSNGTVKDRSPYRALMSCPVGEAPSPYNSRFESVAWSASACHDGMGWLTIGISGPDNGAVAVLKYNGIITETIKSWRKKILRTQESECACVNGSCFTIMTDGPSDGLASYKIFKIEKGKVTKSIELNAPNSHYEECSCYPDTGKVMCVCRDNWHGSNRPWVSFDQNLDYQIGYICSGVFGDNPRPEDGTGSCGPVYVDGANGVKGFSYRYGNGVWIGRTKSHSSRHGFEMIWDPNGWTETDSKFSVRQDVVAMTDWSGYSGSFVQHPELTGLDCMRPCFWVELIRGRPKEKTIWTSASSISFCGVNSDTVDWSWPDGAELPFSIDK

For the compound `O[C@H]1[C@H]2c3cc4c(cc3CN3CCC(=C[C@@H]1O)[C@H]23)OCO4` [AA1, lycorine], the CC50 in the data set on MDCK cells was 20·9 ± 0·07 μM. In data set [1], the “luciferase activities (RNP activity) compared with no treatment” value was “slightly higher luciferase activities”. The “SI (CC50/EC50)” value in data set [2] is recorded as above 45. The “prevention of binding and internalizing of H5N1 pseudovirions into MDCK cells” value in data set [3] was “neither AA1 nor AA3 could prevent”. Further, in data set [4], the “inhibitory activity when added at time intervals 5 min–1 h, 15 min–1 h, 30 min–1 h, 1–2 h, 2–4 h, or 4–8 h” value is recorded as “not significant” and the “inhibitory effect against virus, time of addition” value was “observed after a single round of replication (12 h p.i.)”. Also, the inhibition at 52 µM in data set [4] (read-out: virus inhibited (HA titer)) is around 50%. In addition, the “inhibitory activity on the N1‐type neuraminidase” value at purified N1‐type NA is on record as “did not exhibit significant inhibitory activity”. Further, the “HA titer, cultured with DMEM‐containing compounds (protocol 4, 5, 7)” value in data set [5] is “no HA titer was detected”. Also, in data set [6], the “location of NP protein at 48 h p.i. (multi‐round replication)” value is “NP protein was exported to cytoplasm”; the “migration of the RNP complex from the nucleus to cytoplasm, early and middle stages of the replication cycle (0–6 h)” value was “affected migration of the RNP complex from the nucleus to cytoplasm”; the “time for which antiviral activity (block in vRNP nuclear export) was retained” value was “up to 24 h”.
Consider `O=c1cc(N2CCOCC2)oc2c(-c3ccccc3)cccc12` [LY294002, reference compound], for which the “distribution of NP protein at 12, 24, and 48 h p.i.” value in data set [6] is “the protein was still in the nucleus”.
